Data from ChEMBL document CHEMBL1122832, “4-substituted 5-[m-(trifluoromethyl)phenoxy]primaquine analogues as potential antimalarial agents” (1985).
Values joined by “and” are separate entries in the source; they are usually repeats but may differ in a detail not shown here. Equal entries are not always repeated.

What was measured:
Type in all cases: functional
Mus musculus [1] = assay: Antimalarial activity against Plasmodium berghei in mice (Mus musculus) at a dose of 160 mg/kg and activity expressed as number cures surviving 60 days
Mus musculus [2] = assay: Antimalarial activity against Plasmodium berghei in mice (Mus musculus) at a dose of 320 mg/kg and activity expressed as number cures surviving 60 days
Mus musculus [3] = assay: Antimalarial activity against Plasmodium berghei in mice (Mus musculus) at a dose of 80 mg/kg and activity expressed as number cures surviving 60 days
Mus musculus [4] = assay: Antimalarial activity against Plasmodium berghei yoelii in mice (Mus musculus) at a dose of 10 mg/kg administered perorally and activity expressed as cures; 0/15; conditions: route oral
Mus musculus [5] = assay: Antimalarial activity against Plasmodium berghei yoelii in mice (Mus musculus) at a dose of 10 mg/kg administered subcutaneously and activity expressed as cures; 9/15; conditions: route subcutaneous
Mus musculus [6] = assay: Antimalarial activity against Plasmodium berghei yoelii in mice (Mus musculus) at a dose of 160 mg/kg administered subcutaneously and activity expressed as cures; 10/10; conditions: route subcutaneous
Mus musculus [7] = assay: Antimalarial activity against Plasmodium berghei yoelii in mice (Mus musculus) at a dose of 2.5 mg/kg administered by peroral and activity expressed as cures; 0/5; conditions: route oral
Mus musculus [8] = assay: Antimalarial activity against Plasmodium berghei yoelii in mice (Mus musculus) at a dose of 2.5 mg/kg administered subcutaneously and activity expressed as cures; 0/5; conditions: route subcutaneous
Mus musculus [9] = assay: Antimalarial activity against Plasmodium berghei yoelii in mice (Mus musculus) at a dose of 40 mg/kg administered by peroral and activity expressed as cures; 4/5; conditions: route oral
Mus musculus [10] = assay: Antimalarial activity against Plasmodium berghei yoelii in mice (Mus musculus) at a dose of 40 mg/kg administered by subcutaneous and activity expressed as cures; 12/15
Mus musculus [11] = assay: Mean survival time of mice(Plasmodium berghei) at a dose of 10 mg/kg, total no. of mice = 5
Mus musculus [12] = assay: Mean survival time of mice(Plasmodium berghei) at a dose of 20 mg/kg, total no. of mice = 5
Mus musculus [13] = assay: Mean survival time of mice(Plasmodium berghei) at a dose of 40 mg/kg, total no. of mice = 5
Mus musculus [14] = assay: Mean survival time of mice(Plasmodium berghei) at a dose of 5 mg/kg, total no. of mice = 5
Mus musculus [15] = assay: Antimalarial activity against Plasmodium berghei in mice (Mus musculus) at a dose of 640 mg/kg and activity expressed as toxic deaths on days 2-5
Plasmodium cynomolgi [16] = assay: Antimalarial activity against Plasmodium cynomolgi infected Rhesus monkeys (Macaca mulatta) at 1.0 mg/kg;cured 0 of 2
Plasmodium cynomolgi [17] = assay: Antimalarial activity against Plasmodium cynomolgi infected Rhesus monkeys (Macaca mulatta) at 1.0 mg/kg; relapses
Mus musculus [18] = assay: Antimalarial activity against Plasmodium berghei yoelii in mice (Mus musculus) at a dose of 10 mg/kg administered by peroral and activity expressed as cures; 3/10; conditions: route oral
Mus musculus [19] = assay: Antimalarial activity against Plasmodium berghei yoelii in mice (Mus musculus) at a dose of 10 mg/kg administered by subcutaneous and activity expressed as cures; 10/15
Mus musculus [20] = assay: Antimalarial activity against Plasmodium berghei yoelii in mice (Mus musculus) at a dose of 2.5 mg/kg administered perorally and activity expressed as cures; 3/10; conditions: route oral
Mus musculus [21] = assay: Antimalarial activity against Plasmodium berghei yoelii in mice (Mus musculus) at a dose of 2.5 mg/kg administered by subcutaneous and activity expressed as cures; 0/10
Mus musculus [22] = assay: Antimalarial activity against Plasmodium berghei yoelii in mice (Mus musculus) at a dose of 40 mg/kg administered perorally and activity expressed as cures; conditions: route oral
Mus musculus [23] = assay: Antimalarial activity against Plasmodium berghei yoelii in mice (Mus musculus) at a dose of 40 mg/kg administered by subcutaneous and activity expressed as cures; 14/15
Mus musculus [24] = assay: Mean survival time of mice(Plasmodium berghei) at a dose of 160 mg/kg, total no. of mice = 5
Mus musculus [25] = assay: Mean survival time of mice(Plasmodium berghei) at a dose of 320 mg/kg, total no. of mice = 5
Mus musculus [26] = assay: Antimalarial activity against Plasmodium berghei in mice (Mus musculus) at a dose of 64 mg/kg and activity expressed as toxic deaths on days 2-5
Mus musculus [27] = assay: Antimalarial activity against Plasmodium berghei yoelii in mice (Mus musculus) at a dose of 160 mg/kg administered by subcutaneous and activity expressed as toxic
Mus musculus [28] = assay: Antimalarial activity against Plasmodium berghei yoelii in mice (Mus musculus) at a dose of 2.5 mg/kg and activity expressed as toxic
Plasmodium cynomolgi [29] = assay: Antimalarial activity against Plasmodium cynomolgi infected Rhesus monkeys (Macaca mulatta) at 1.0 mg/kg; cured 0 of 1
Mus musculus [30] = assay: Antimalarial activity against Plasmodium berghei yoelii in mice (Mus musculus) at a dose of 160 mg/kg administered subcutaneously and activity expressed as cures; conditions: route subcutaneous
Mus musculus [31] = assay: Mean survival time of mice(Plasmodium berghei) at a dose of 80 mg/kg, total no. of mice = 5
Mus musculus [32] = assay: Antimalarial activity against Plasmodium berghei in mice (Mus musculus) at a dose of 320 mg/kg and activity expressed as toxic deaths on days 2-5
Mus musculus [33] = assay: Antimalarial activity against Plasmodium berghei in mice (Mus musculus) at a dose of 160 mg/kg and activity expressed as toxic deaths on days 2-5
Plasmodium cynomolgi [34] = assay: Antimalarial activity against Plasmodium cynomolgi in Rhesus monkeys (Macaca mulatta) at 0.316 mg/kg; cured 0 of 2
Plasmodium cynomolgi [35] = assay: Antimalarial activity against Plasmodium cynomolgi infected Rhesus monkeys (Macaca mulatta) at 1.0 mg/kg; cured 1 of 2
Plasmodium cynomolgi [36] = assay: Antimalarial activity against Plasmodium cynomolgi infected Rhesus monkeys (Macaca mulatta) at 0.1 mg/kg; cured 0 of 2

Compound COc1cc(NC(C)CCCN)c2nccc(C(OC)OC)c2c1Oc1cccc(C(F)(F)F)c1 (configuration not stated) has a Cures (Mus musculus [1]) of 3, a Cures (Mus musculus [2]) of 2 and a Cures (Mus musculus [3]) of 1. For the same compound, the Cures (Mus musculus [4]) was 0, the Cures (Mus musculus [5]) was 9 and the Cures (Mus musculus [6]) was 10. For the same compound, the Cures (Mus musculus [7]) was 0, the Cures (Mus musculus [8]) was 0 and the Cures (Mus musculus [9]) was 4. For the same compound, the Cures (Mus musculus [10]) was 12, the “Delta MST” value (Mus musculus [11]) was 2.5 and the “Delta MST” value (Mus musculus [12]) was 5.5. The “Delta MST” value (Mus musculus [13]) was 8.5, the “Delta MST” value (Mus musculus [14]) was 1.9 and the Toxic (Mus musculus [15]) was 5. The Cures (Plasmodium cynomolgi [16]) was 0 and the Relapses (Plasmodium cynomolgi [17]) was 24 and 44.
Compound COc1cc(NC(C)CCCN)c2nccc(CO)c2c1Oc1cccc(C(F)(F)F)c1 (configuration not stated) has a Cures (Mus musculus [3]) of 1, a Cures (Mus musculus [18]) of 3 and a Cures (Mus musculus [19]) of 10. For the same compound, the Cures (Mus musculus [20]) was 3, the Cures (Mus musculus [21]) was 0 and the Cures (Mus musculus [22]) was 10. The Cures (Mus musculus [23]) was 14, the “Delta MST” value (Mus musculus [11]) was 1.4 and the “Delta MST” value (Mus musculus [24]) was 14.8. The “Delta MST” value (Mus musculus [12]) was 3.6, the “Delta MST” value (Mus musculus [25]) was 13.1 and the “Delta MST” value (Mus musculus [13]) was 3.8. For the same compound, the “Delta MST” value (Mus musculus [14]) was 0.6, the Toxic (Mus musculus [26]) was 4 and the Toxic (Mus musculus [27]) was 2. It also gave a Toxic (Mus musculus [28]) of 7, a Cures (Plasmodium cynomolgi [29]) of 0 and a Cures (Mus musculus [30]) of 3.
COc1cc(NC(C)CCCN)c2ncccc2c1.O=P(O)(O)O.O=P(O)(O)O (configuration not stated) [PRIMAQUINE PHOSPHATE] was tested, and the “Delta MST” value (Mus musculus [31]) was 9, the Toxic (Mus musculus [32]) was 5 and the Toxic (Mus musculus [15]) was 5. It also gave a Toxic (Mus musculus [33]) of 2.
Compound COc1cc(NC(C)CCCN)c2ncccc2c1 (configuration not stated) [PRIMAQUINE] has a Cures (Plasmodium cynomolgi [34]) of 0, a Cures (Plasmodium cynomolgi [35]) of 1 and a Cures (Plasmodium cynomolgi [36]) of 0.
